Tested on: caecal microbiota cultures
Experiment: 16S sequencing of total (DNA) and active (cDNA) community in caecal microbiota cultures, BBR vs Control
Format: cell-based, broiler chicken
Details: 48 h

## COc1ccc2cc3[n+](cc2c1OC)CCc1cc2c(cc1-3)OCO2 [Berberine, Berberine chloride]
  L2FC BBRDNA vs ControlDNA: 0.44
  L2FC BBRRNA vs BBRDNA: 3.40
  L2FC BBRRNA vs ControlRNA: 1.34
OTU 40798 (Butyricicoccus), active (cDNA) community
  L2FC BBRRNA vs ControlRNA: 0.45
OTU 40798 (Butyricicoccus), active vs total community in BBR group
  L2FC BBRRNA vs BBRDNA: -4.40
OTU 40798 (Butyricicoccus), total (DNA) community
  L2FC BBRDNA vs ControlDNA: 0.83
OTU 109633 (Eubacterium), active (cDNA) community
  L2FC BBRRNA vs ControlRNA: 1.92
OTU 109633 (Eubacterium), active vs total community in BBR group
  L2FC BBRRNA vs BBRDNA: -0.64
OTU 109633 (Eubacterium), total (DNA) community
  L2FC BBRDNA vs ControlDNA: 1.75
OTU 129401 (Family_Ruminococcaceae), active (cDNA) community
  L2FC BBRRNA vs ControlRNA: 1.00
OTU 129401 (Family_Ruminococcaceae), active vs total community in BBR group
  L2FC BBRRNA vs BBRDNA: 1.99
OTU 129401 (Family_Ruminococcaceae), total (DNA) community
  L2FC BBRDNA vs ControlDNA: 0.84
OTU 157573 (Alistipes), active (cDNA) community
  L2FC BBRRNA vs ControlRNA: -0.29
OTU 157573 (Alistipes), active vs total community in BBR group
  L2FC BBRRNA vs BBRDNA: 1.91
OTU 157573 (Alistipes), total (DNA) community
  L2FC BBRDNA vs ControlDNA: 0.19
OTU 157772 (uncultured Ruminococcaceae), active (cDNA) community
  L2FC BBRRNA vs ControlRNA: -0.27
OTU 157772 (uncultured Ruminococcaceae), active vs total community in BBR group
  L2FC BBRRNA vs BBRDNA: 1.68
OTU 157772 (uncultured Ruminococcaceae), total (DNA) community
  L2FC BBRDNA vs ControlDNA: -0.36
OTU 180099 (uncultured Lachnospiraceae), active (cDNA) community
  L2FC BBRRNA vs ControlRNA: -0.96
OTU 180099 (uncultured Lachnospiraceae), active vs total community in BBR group
  L2FC BBRRNA vs BBRDNA: -0.59
OTU 180099 (uncultured Lachnospiraceae), total (DNA) community
  L2FC BBRDNA vs ControlDNA: -1.55
OTU 186881 (Anaerofilum), active (cDNA) community
  L2FC BBRRNA vs ControlRNA: -1.11
OTU 186881 (Anaerofilum), active vs total community in BBR group
  L2FC BBRRNA vs BBRDNA: -0.59
OTU 186881 (Anaerofilum), total (DNA) community
  L2FC BBRDNA vs ControlDNA: -1.53
OTU 193240 (Butyricicoccus), active (cDNA) community
  L2FC BBRRNA vs ControlRNA: -1.08
OTU 193240 (Butyricicoccus), active vs total community in BBR group
  L2FC BBRRNA vs BBRDNA: -1.42
OTU 193240 (Butyricicoccus), total (DNA) community
  L2FC BBRDNA vs ControlDNA: -1.34
OTU 196831 (Oscillibacter), active (cDNA) community
  L2FC BBRRNA vs ControlRNA: 0.14
OTU 196831 (Oscillibacter), active vs total community in BBR group
  L2FC BBRRNA vs BBRDNA: 2.09
OTU 196831 (Oscillibacter), total (DNA) community
  L2FC BBRDNA vs ControlDNA: 0.24
OTU 199555 ([Ruminococcus] torques group), active (cDNA) community
  L2FC BBRRNA vs ControlRNA: -1.39
OTU 199555 ([Ruminococcus] torques group), active vs total community in BBR group
  L2FC BBRRNA vs BBRDNA: -0.15
OTU 199555 ([Ruminococcus] torques group), total (DNA) community
  L2FC BBRDNA vs ControlDNA: -1.72
OTU 233953 (Erysipelatoclostridium), active (cDNA) community
  L2FC BBRRNA vs ControlRNA: -1.85
OTU 233953 (Erysipelatoclostridium), active vs total community in BBR group
  L2FC BBRRNA vs BBRDNA: -0.21
OTU 233953 (Erysipelatoclostridium), total (DNA) community
  L2FC BBRDNA vs ControlDNA: -1.14
OTU 234912 (Ruminococcaceae UCG-013), active (cDNA) community
  L2FC BBRRNA vs ControlRNA: -2.52
OTU 234912 (Ruminococcaceae UCG-013), active vs total community in BBR group
  L2FC BBRRNA vs BBRDNA: -0.46
OTU 234912 (Ruminococcaceae UCG-013), total (DNA) community
  L2FC BBRDNA vs ControlDNA: -3.19
OTU 240271 (uncultured Ruminococcaceae), active (cDNA) community
  L2FC BBRRNA vs ControlRNA: 0.20
OTU 240271 (uncultured Ruminococcaceae), active vs total community in BBR group
  L2FC BBRRNA vs BBRDNA: 1.89
OTU 240271 (uncultured Ruminococcaceae), total (DNA) community
  L2FC BBRDNA vs ControlDNA: 0.33
OTU 249142 ([Ruminococcus] torques group), active (cDNA) community
  L2FC BBRRNA vs ControlRNA: -3.17
OTU 249142 ([Ruminococcus] torques group), active vs total community in BBR group
  L2FC BBRRNA vs BBRDNA: -0.87
OTU 249142 ([Ruminococcus] torques group), total (DNA) community
  L2FC BBRDNA vs ControlDNA: -2.54
OTU 293975 (uncultured Lachnospiraceae), active (cDNA) community
  L2FC BBRRNA vs ControlRNA: -2.01
OTU 293975 (uncultured Lachnospiraceae), active vs total community in BBR group
  L2FC BBRRNA vs BBRDNA: 0.18
OTU 293975 (uncultured Lachnospiraceae), total (DNA) community
  L2FC BBRDNA vs ControlDNA: -1.62
OTU 294545 (Ruminiclostridium), active (cDNA) community
  L2FC BBRRNA vs ControlRNA: -0.23
OTU 294545 (Ruminiclostridium), active vs total community in BBR group
  L2FC BBRRNA vs BBRDNA: 1.73
OTU 294545 (Ruminiclostridium), total (DNA) community
  L2FC BBRDNA vs ControlDNA: 0.21
OTU 308157 (Butyricicoccus), active (cDNA) community
  L2FC BBRRNA vs ControlRNA: 0.37
OTU 308157 (Butyricicoccus), active vs total community in BBR group
  L2FC BBRRNA vs BBRDNA: -1.55
OTU 308157 (Butyricicoccus), total (DNA) community
  L2FC BBRDNA vs ControlDNA: 0.47
OTU 315223 (Anaerotruncus), active (cDNA) community
  L2FC BBRRNA vs ControlRNA: 0.81
OTU 315223 (Anaerotruncus), active vs total community in BBR group
  L2FC BBRRNA vs BBRDNA: 2.28
OTU 315223 (Anaerotruncus), total (DNA) community
  L2FC BBRDNA vs ControlDNA: 0.02
OTU 349246 (Ruminiclostridium 9), active (cDNA) community
  L2FC BBRRNA vs ControlRNA: -1.09
OTU 349246 (Ruminiclostridium 9), active vs total community in BBR group
  L2FC BBRRNA vs BBRDNA: 1.04
OTU 349246 (Ruminiclostridium 9), total (DNA) community
  L2FC BBRDNA vs ControlDNA: -0.39
OTU 350256 (Intestinimonas), active (cDNA) community
  L2FC BBRRNA vs ControlRNA: -0.58
OTU 350256 (Intestinimonas), active vs total community in BBR group
  L2FC BBRRNA vs BBRDNA: 1.65
OTU 350256 (Intestinimonas), total (DNA) community
  L2FC BBRDNA vs ControlDNA: -0.23
OTU 356073 ([Eubacterium] xylanophilum group), active (cDNA) community
  L2FC BBRRNA vs ControlRNA: -1.98
OTU 356073 ([Eubacterium] xylanophilum group), active vs total community in BBR group
  L2FC BBRRNA vs BBRDNA: -1.05
OTU 356073 ([Eubacterium] xylanophilum group), total (DNA) community
  L2FC BBRDNA vs ControlDNA: -1.79
OTU 362793 (Oscillibacter), active (cDNA) community
  L2FC BBRRNA vs ControlRNA: 0.13
OTU 362793 (Oscillibacter), active vs total community in BBR group
  L2FC BBRRNA vs BBRDNA: 2.11
OTU 362793 (Oscillibacter), total (DNA) community
  L2FC BBRDNA vs ControlDNA: 0.33
OTU 364341 (Family_Ruminococcaceae), active (cDNA) community
  L2FC BBRRNA vs ControlRNA: 0.25
OTU 364341 (Family_Ruminococcaceae), active vs total community in BBR group
  L2FC BBRRNA vs BBRDNA: 1.56
OTU 364341 (Family_Ruminococcaceae), total (DNA) community
  L2FC BBRDNA vs ControlDNA: 0.20
OTU 368615 (uncultured Lachnospiraceae), active (cDNA) community
  L2FC BBRRNA vs ControlRNA: -0.96
OTU 368615 (uncultured Lachnospiraceae), active vs total community in BBR group
  L2FC BBRRNA vs BBRDNA: -1.57
OTU 368615 (uncultured Lachnospiraceae), total (DNA) community
  L2FC BBRDNA vs ControlDNA: -0.96
OTU 408513 (Ruminiclostridium 9), active (cDNA) community
  L2FC BBRRNA vs ControlRNA: -3.12
OTU 408513 (Ruminiclostridium 9), active vs total community in BBR group
  L2FC BBRRNA vs BBRDNA: 1.43
OTU 408513 (Ruminiclostridium 9), total (DNA) community
  L2FC BBRDNA vs ControlDNA: -2.29
OTU 443620 (uncultured Ruminococcaceae), active (cDNA) community
  L2FC BBRRNA vs ControlRNA: -0.74
OTU 443620 (uncultured Ruminococcaceae), active vs total community in BBR group
  L2FC BBRRNA vs BBRDNA: 0.61
OTU 443620 (uncultured Ruminococcaceae), total (DNA) community
  L2FC BBRDNA vs ControlDNA: 0.83
OTU 461487 (Ruminococcaceae UCG-014), active (cDNA) community
  L2FC BBRRNA vs ControlRNA: -0.55
OTU 461487 (Ruminococcaceae UCG-014), active vs total community in BBR group
  L2FC BBRRNA vs BBRDNA: -3.30
OTU 461487 (Ruminococcaceae UCG-014), total (DNA) community
  L2FC BBRDNA vs ControlDNA: -0.15
OTU 510295 (Fournierella), active (cDNA) community
  L2FC BBRRNA vs ControlRNA: 0.35
OTU 510295 (Fournierella), active vs total community in BBR group
  L2FC BBRRNA vs BBRDNA: -2.43
OTU 510295 (Fournierella), total (DNA) community
  L2FC BBRDNA vs ControlDNA: 0.86
OTU 519763 (Intestinimonas), active (cDNA) community
  L2FC BBRRNA vs ControlRNA: 1.22
OTU 519763 (Intestinimonas), active vs total community in BBR group
  L2FC BBRRNA vs BBRDNA: 2.52
OTU 519763 (Intestinimonas), total (DNA) community
  L2FC BBRDNA vs ControlDNA: 1.10
